For this assay, the system named is BDF1 mice, B16 melanoma ip, median survival T/C. As to the kind of experiment: NCI In Vivo Anticancer Drug Screen. Data for tumor model B16 Melanoma (intraperitoneal) in B6D2F1 (BDF1) mice. The note with it: endpoint: median survival time, higher = longer survival. In short, it runs like this:
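Transplantable tumor model; survival or tumor size measured; reported as T/C, treated over vehicle control.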

The mark [1] stands for this setting: dose: 6.25 mg/kg/injection, schedule: Q01DX009 (ip), vehicle: Klucel (hydroxypropylcellulose) (HPC).
[2] abbreviates: dose: 12.5 mg/kg/injection, schedule: Q01DX009 (ip), vehicle: Klucel (hydroxypropylcellulose) (HPC).
Where [3] appears, read: dose: 50.0 mg/kg/injection, schedule: Q01DX009 (ip), vehicle: Klucel (hydroxypropylcellulose) (HPC).
Setting [4] is: dose: 50.0 mg/kg/injection, schedule: Q01DX009 (ip), vehicle: saline with Tween-80.
Where [5] appears, read: dose: 100.0 mg/kg/injection, schedule: Q01DX009 (ip), vehicle: saline with Tween-80.
The mark [6] stands for this setting: dose: 25.0 mg/kg/injection, schedule: Q01DX009 (ip), vehicle: Klucel (hydroxypropylcellulose) (HPC).

15 molecules from PubChem BioAssay AID192 (DTP/NCI, 2004) can be followed below.

“And” between values parts separate entries of the source, which are not always exact repeats. Identical values can stand only once. Inconclusive results and toxic doses are left out. Peptide text beside a SMILES is read from it.

In the case of `CS(=O)(=O)OCCN(CCOS(C)(=O)=O)c1ccc(C=Nc2ccc3oc(=O)ccc3c2)cc1`, the T/C was 120 % of control under setting [1], 118 % of control under setting [2] and 118 % of control under setting [3].

Regarding `O=C(NO)c1ccncc1`, the T/C is, setting by setting: (dose: 25.0 mg/kg/injection, schedule: Q01DX009 (ip), vehicle: water) 96 % of control; (dose: 50.0 mg/kg/injection, schedule: Q01DX009 (ip), vehicle: water) 106 % of control and 111 % of control; (dose: 100.0 mg/kg/injection, schedule: Q01DX009 (ip), vehicle: water) 93 % of control and 105 % of control; (dose: 200.0 mg/kg/injection, schedule: Q01DX009 (ip), vehicle: water) 100 % of control; (dose: 300.0 mg/kg/injection, schedule: Q01DX009 (ip), vehicle: water) 93 % of control; (dose: 400.0 mg/kg/injection, schedule: Q01DX009 (ip), vehicle: water) 100 % of control. Also, the T/C reads like this: (dose: 600.0 mg/kg/injection, schedule: Q01DX009 (ip), vehicle: water) 105 % of control and 107 % of control; (dose: 700.0 mg/kg/injection, schedule: Q01DX009 (ip), vehicle: water) 100 % of control.

On to `C=CCOCC(O)CN(CCC(C)C)CCC(C)C` (stereo not drawn), for which the T/C was 91 % of control (dose: 12.5 mg/kg/injection, schedule: Q04DX003 (ip), vehicle: Klucel (hydroxypropylcellulose) (HPC)); 91 % of control (dose: 25.0 mg/kg/injection, schedule: Q04DX003 (ip), vehicle: Klucel (hydroxypropylcellulose) (HPC)); 95 % of control (dose: 50.0 mg/kg/injection, schedule: Q04DX003 (ip), vehicle: Klucel (hydroxypropylcellulose) (HPC)).

Turning to `CCOC(=O)C(NC(N)=O)C(=O)OCC`, the T/C is 104 % of control (dose: 50.0 mg/kg/injection, schedule: Q01DX009 (ip), vehicle: other); 104 % of control (dose: 100.0 mg/kg/injection, schedule: Q01DX009 (ip), vehicle: other); 103 % of control (dose: 200.0 mg/kg/injection, schedule: Q01DX009 (ip), vehicle: other); 104 % of control (dose: 400.0 mg/kg/injection, schedule: Q01DX009 (ip), vehicle: other).

With `O=C1C=CC(=O)c2c(Cl)ccc(O)c21`, the T/C (dose: 0.63 mg/kg/injection, schedule: Q01DX009 (ip), vehicle: Klucel (hydroxypropylcellulose) (HPC)) is 90 % of control and the T/C (dose: 1.25 mg/kg/injection, schedule: Q01DX009 (ip), vehicle: Klucel (hydroxypropylcellulose) (HPC)) is 95 % of control.

Turning to `COC(=O)C12Oc3ccc(-c4ccc5c(c4O)C(=O)C4=CCC(C)C(O)C4(C(=O)OC)O5)c(O)c3C(=O)C1=CCC(C)C2O` (stereo not drawn), the T/C is, setting by setting: (dose: 2.5 mg/kg/injection, schedule: Q01DX009 (ip), vehicle: saline with Tween-80) 97 % of control; (dose: 5.0 mg/kg/injection, schedule: Q01DX009 (ip), vehicle: saline with Tween-80) 86 % of control and 98 % of control; (dose: 10.0 mg/kg/injection, schedule: Q01DX009 (ip), vehicle: saline with Tween-80) 88 % of control and 98 % of control.

In the case of `CC(C)CC(NC(=O)C(C)NC(=O)CN)C(=O)O` (stereo not drawn) (H-Gly-Ala-Leu-OH; configuration not given here), the T/C under setting [4] was 97 % of control; the T/C under setting [5] is 96 % of control; the T/C (dose: 200.0 mg/kg/injection, schedule: Q01DX009 (ip), vehicle: saline with Tween-80) is 98 % of control; the T/C (dose: 400.0 mg/kg/injection, schedule: Q01DX009 (ip), vehicle: saline with Tween-80) is 103 % of control.

On to `CCCN(CCC)C(=O)c1cccnc1`, for which the T/C is, setting by setting: (dose: 100.0 mg/kg/injection, schedule: Q01DX009 (ip), vehicle: saline) 102 % of control; (dose: 200.0 mg/kg/injection, schedule: Q01DX009 (ip), vehicle: saline) 106 % of control; (dose: 400.0 mg/kg/injection, schedule: Q01DX009 (ip), vehicle: saline) 113 % of control.

In the case of `C1CCC2OCCOCCOC3CCCCC3OCCOCCOC2C1` (stereo not drawn), the T/C was 91 % of control and 95 % of control (dose: 3.12 mg/kg/injection, schedule: Q01DX009 (ip), vehicle: Klucel (hydroxypropylcellulose) (HPC)); 95 % of control and 107 % of control under setting [1]; 106 % of control and 111 % of control under setting [2]; 108 % of control and 121 % of control under setting [6]; 98 % of control under setting [3].

As to `CC1=C(CCC(=O)O)c2cc3nc(cc4[nH]c(cc4C)cc4[nH]c(cc1n2)cc4C)C(C)(C)C3CCC(=O)O` (stereo not drawn), the T/C was 109 % of control (dose: 3.0 mg/kg/injection, schedule: Q01DX009 (ip), vehicle: Klucel (hydroxypropylcellulose) (HPC)); 101 % of control (dose: 6.0 mg/kg/injection, schedule: Q01DX009 (ip), vehicle: Klucel (hydroxypropylcellulose) (HPC)); 90 % of control (dose: 12.0 mg/kg/injection, schedule: Q01DX009 (ip), vehicle: Klucel (hydroxypropylcellulose) (HPC)); 104 % of control (dose: 24.0 mg/kg/injection, schedule: Q01DX009 (ip), vehicle: Klucel (hydroxypropylcellulose) (HPC)).

On to `C=C1C(=O)O[C@@H]2[C@H]3O[C@]3(C)CCC=C(C)CC[C@@H]12`, for which the T/C by setting is: under setting [2], 92 % of control; under setting [6], 87 % of control; under setting [3], 92 % of control.

`COc1cc([C@@H]2c3cc4c(cc3[C@@H](OC3OC5CO[C@@H](c6cccs6)OC5C(O)C3O)[C@H]3COC(=O)[C@H]23)OCO4)cc(OC)c1O` (stereo partly drawn): the T/C by setting is: (dose: 0.25 mg/kg/injection, schedule: Q01DX009 (ip), vehicle: clinical formulation) 183 % of control; (dose: 0.25 mg/kg/injection, schedule: Q01DX009 (ip), vehicle: saline) 171 % of control; (dose: 0.5 mg/kg/injection, schedule: Q01DX009 (ip), vehicle: clinical formulation) 223 % of control; (dose: 0.5 mg/kg/injection, schedule: Q01DX009 (ip), vehicle: saline) 166 % of control and 214 % of control; (dose: 0.5 mg/kg/injection, schedule: Q01DX009 (ip), vehicle: water) 173 % of control; (dose: 1.0 mg/kg/injection, schedule: Q01DX009 (ip), vehicle: clinical formulation) 269 % of control. Besides, the T/C (dose: 1.0 mg/kg/injection, schedule: Q01DX009 (ip), vehicle: saline) was 185 % of control and 254 % of control; the T/C (dose: 1.0 mg/kg/injection, schedule: Q01DX009 (ip), vehicle: water) was 178 % of control; the T/C (dose: 2.0 mg/kg/injection, schedule: Q01DX009 (ip), vehicle: clinical formulation) is 285 % of control; the T/C (dose: 2.0 mg/kg/injection, schedule: Q01DX009 (ip), vehicle: saline) was 204 % of control and 285 % of control; the T/C (dose: 2.0 mg/kg/injection, schedule: Q01DX009 (ip), vehicle: water) is 204 % of control; the T/C (dose: 4.0 mg/kg/injection, schedule: Q01DX009 (ip), vehicle: saline) is 257 % of control.

`C[CH2][Ge]([CH2]C)[CH2]C.C[CH2][Ge]([CH2]C)[CH2]C.C[CH2][Ge]([CH2]C)[O][Ge]([CH2]C)[CH2]C`: the T/C is 101 % of control (dose: 6.25 mg/kg/injection, schedule: Q01DX009 (ip), vehicle: saline with Tween-80); 100 % of control (dose: 12.5 mg/kg/injection, schedule: Q01DX009 (ip), vehicle: saline with Tween-80); 101 % of control (dose: 25.0 mg/kg/injection, schedule: Q01DX009 (ip), vehicle: saline with Tween-80); 91 % of control under setting [4]; 100 % of control under setting [5].

Regarding `CCCC(=O)O.CCCC(=O)O.CCCC(=O)O.CCCC(=O)O.[Rh].[Rh]`, the T/C runs as follows: (dose: 46.7 micrograms/kg/injection, schedule: Q08HX018 (ip), vehicle: saline + alcohol) 98 % of control; (dose: 77.8 micrograms/kg/injection, schedule: Q08HX018 (ip), vehicle: saline + alcohol) 97 % of control; (dose: 93.3 micrograms/kg/injection, schedule: Q01DX009 (ip), vehicle: saline + alcohol) 98 % of control; (dose: 156.0 micrograms/kg/injection, schedule: Q01DX009 (ip), vehicle: saline + alcohol) 98 % of control; (dose: 216.0 micrograms/kg/injection, schedule: Q08HX018 (ip), vehicle: saline + alcohol) 88 % of control; (dose: 259.0 micrograms/kg/injection, schedule: Q01DX009 (ip), vehicle: saline + alcohol) 102 % of control.

For `CC(=O)NNC(=O)c1cnccn1`, the T/C reads like this: (dose: 22.5 mg/kg/injection, schedule: Q01DX009 (ip), vehicle: saline) 97 % of control; (dose: 45.0 mg/kg/injection, schedule: Q01DX009 (ip), vehicle: saline) 97 % of control; (dose: 90.0 mg/kg/injection, schedule: Q01DX009 (ip), vehicle: saline) 90 % of control.
